# In patent publication US20130303509A1, “NAMPT INHIBITORS” (AbbVie Inc., priority 2012, published 2013):
# Tested on: PC3 cells
# Experiment: NAMPT Cell Proliferation Assay
# Type: cell-based
# Details: Homo sapiens, PC-3, 120 h, 5 days incubation, cell viability by Cell Titer Glo
# How it was run: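 Seeded at 500 cells/well in RPMI with 10% heat-inactivated FBS and left to attach overnight at 37° C, 5% CO2. Compounds were added as 10-fold dilutions […] for 5 days, then viability was read by CellTiter-Glo. IC50s came from sigmoidal fits of percent inhibition.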
row,Compound,IC50
1,"CCCCCC(=O)N1CCC(c2ccc(NC(=O)C3CN(c4cccnn4)C3)cc2)CC1 [Example 321, N-[4-(1-hexanoylpiperidin-4-yl)phenyl]-1-(pyridazin-3-yl)azetidine-3-carboxamide]",3.21 nM
2,"O=C(Nc1ccc(OC2CCN(C(=O)CCC(F)(F)F)CC2)cc1)C1CN(c2cccnc2)C1 [Example 51, 1-(pyridin-3-yl)-N-(4-{[1-(4,4,4-trifluorobutanoyl)piperidin-4-yl]oxy}phenyl)azetidine-3-carboxamide]",3.62 nM
3,"CC(C)C(=O)N1CC[C@@H](Oc2ccc(NC(=O)C3CN(c4cccnn4)C3)cc2)C1 [Example 513, N-(4-{[(3R)-1-(2-methylpropanoyl)pyrrolidin-3-yl]oxy}phenyl)-1-(pyridazin-3-yl)azetidine-3-carboxamide]",3.5 nM
4,"CC(=O)N1CCC(Oc2ccc(NC(=O)C3CN(c4ccnnc4)C3)cc2)CC1 [Example 282, N-{4-[(1-acetylpiperidin-4-yl)oxy]phenyl}-1-(pyridazin-4-yl)azetidine-3-carboxamide]",629 nM
5,"O=C(N[C@H]1CCN(c2cccnn2)C1)c1ccc(C2CCN(C(=O)c3cccc(F)c3)CC2)s1 [Example 754, 5-[1-(3-fluorobenzoyl)piperidin-4-yl]-N-[(3S)-1-(pyridazin-3-yl)pyrrolidin-3-yl]thiophene-2-carboxamide]",94.8 nM
6,"O=C(Nc1ccc(O[C@@H]2CCN(C(=O)c3ccc(F)cc3)C2)cc1)C1CN(c2ccnnc2)C1 [Example 396, N-(4-{[(3R)-1-(4-fluorobenzoyl)pyrrolidin-3-yl]oxy}phenyl)-1-(pyridazin-4-yl)azetidine-3-carboxamide]",68.5 nM
7,"CC(C)(C(=O)N1CC[C@@H](Oc2ccc(NC(=O)C3CN(c4cccnn4)C3)cc2)C1)c1ccccc1 [Example 508, N-(4-{[(3R)-1-(2-methyl-2-phenylpropanoyl)pyrrolidin-3-yl]oxy}phenyl)-1-(pyridazin-3-yl)azetidine-3-carboxamide]",0.79 nM
8,"O=C(Nc1ccc(C2CCN(C(=O)c3ccccc3)CC2)cc1)C1CN(c2cccnc2)C1 [Example 26, N-[4-(1-benzoylpiperidin-4-yl)phenyl]-1-(pyridin-3-yl)azetidine-3-carboxamide]",0.682 nM
9,"Cc1cccc(C(=O)N2CCC(c3ccc(NC(=O)[C@H]4CCN(c5cccnn5)C4)cc3)CC2)c1 [Example 677, (3S)-N-{4-[1-(3-methylbenzoyl)piperidin-4-yl]phenyl}-1-(pyridazin-3-yl)pyrrolidine-3-carboxamide]",9.3 nM
10,"CCC(C)C(=O)N1CCC(c2ccc(NC(=O)C3CN(c4cccnn4)C3)cc2)CC1 (centres unmarked) [Example 319, N-{4-[1-(2-methylbutanoyl)piperidin-4-yl]phenyl}-1-(pyridazin-3-yl)azetidine-3-carboxamide]",1.24 nM
11,"O=C(Nc1ccc(C2CCN(C(=O)c3cccc(OC(F)(F)F)c3)CC2)cc1)C1CN(c2cccnn2)C1 [Example 356, 1-(pyridazin-3-yl)-N-(4-{1-[3-(trifluoromethoxy)benzoyl]piperidin-4-yl}phenyl)azetidine-3-carboxamide]",9.09 nM
12,"O=C(Nc1ccc(OC2CN(C(=O)C3CCCC3)C2)cc1)C1CN(c2ccnnc2)C1 [Example 259, N-(4-{[1-(cyclopentylcarbonyl)azetidin-3-yl]oxy}phenyl)-1-(pyridazin-4-yl)azetidine-3-carboxamide]",72.6 nM
13,"Cc1ccc(N2CC(C(=O)Nc3ccc(C4CCN(C(=O)c5ccccc5F)CC4)cc3)C2)nn1 [Example 851, N-{4-[1-(2-fluorobenzoyl)piperidin-4-yl]phenyl}-1-(6-methylpyridazin-3-yl)azetidine-3-carboxamide]",2.75 nM
14,"O=C(Nc1ccc(C2CCN(C(=O)c3cncs3)CC2)cc1)[C@H]1CCN(c2cccnn2)C1 [Example 630, (3S)-1-(pyridazin-3-yl)-N-{4-[1-(1,3-thiazol-5-ylcarbonyl)piperidin-4-yl]phenyl}pyrrolidine-3-carboxamide]",8.12 nM
15,"O=C(Nc1ccc(OC2CN(C(=O)c3ccc(F)cc3)C2)cc1)C1CN(c2ccnnc2)C1 [Example 199, N-(4-{[1-(4-fluorobenzoyl)azetidin-3-yl]oxy}phenyl)-1-(pyridazin-4-yl)azetidine-3-carboxamide]",97.4 nM
16,"O=C(Nc1ccc(C2CCN(C(=O)C3(c4ccccc4)CC3)CC2)cc1)C1CN(c2cccnn2)C1 [Example 381, N-(4-{1-[(1-phenylcyclopropyl)carbonyl]piperidin-4-yl}phenyl)-1-(pyridazin-3-yl)azetidine-3-carboxamide]",1.87 nM
17,"CCC(C)(C)C(=O)N1CCC(Oc2ccc(NC(=O)C3CN(c4ccnnc4)C3)cc2)CC1 [Example 300, N-(4-{[1-(2,2-dimethylbutanoyl)piperidin-4-yl]oxy}phenyl)-1-(pyridazin-4-yl)azetidine-3-carboxamide]",25.9 nM
18,"CN(C)CCC(=O)N1CCC(c2ccc(NC(=O)C3CN(c4cccnc4)C3)cc2)CC1 [Example 107, N-{4-[1-(N,N-dimethyl-beta-alanyl)piperidin-4-yl]phenyl}-1-(pyridin-3-yl)azetidine-3-carboxamide]",6.88 nM
19,"O=C(Nc1ccc(C2CCN(C(=O)c3ccccc3F)CC2)cc1)C1CN(c2ccnnc2)C1 [Example 551, N-{4-[1-(2-fluorobenzoyl)piperidin-4-yl]phenyl}-1-(pyridazin-4-yl)azetidine-3-carboxamide]",0.48 nM
20,"N#Cc1ccncc1N1CC(C(=O)Nc2ccc(C3CCN(C(=O)c4ccccc4)CC3)cc2)C1 [Example 738, N-[4-(1-benzoylpiperidin-4-yl)phenyl]-1-(4-cyanopyridin-3-yl)azetidine-3-carboxamide]",854 nM

# Continued, values first:
row,IC50,Compound
1,60 nM,"O=C(Nc1ccc(OC2CCN(C(=O)c3ccc(F)cc3)CC2)cc1)[C@H]1CCN(c2cccnn2)C1 [Example 800, (3S)-N-(4-{[1-(4-fluorobenzoyl)piperidin-4-yl]oxy}phenyl)-1-(pyridazin-3-yl)pyrrolidine-3-carboxamide]"
2,10 nM,"O=C(Nc1ccc(C2CCN(C(=O)C3CC3)CC2)cc1F)C1CN(c2cccnn2)C1 [Example 860, N-{4-[1-(cyclopropylcarbonyl)piperidin-4-yl]-2-fluorophenyl}-1-(pyridazin-3-yl)azetidine-3-carboxamide]"
3,7.15 nM,"O=C(Nc1ccc(C2CCN(C(=O)C3CC3)CC2)cc1)C1CN(c2cccnn2)C1 [Example 411, N-{4-[1-(cyclopropylcarbonyl)piperidin-4-yl]phenyl}-1-(pyridazin-3-yl)azetidine-3-carboxamide]"
4,15.9 nM,"O=C(Nc1ccc(C2CCN(C(=O)C3CC3)CC2)cc1)[C@H]1CCN(c2cccnn2)C1 [Example 662, (3S)-N-{4-[1-(cyclopropylcarbonyl)piperidin-4-yl]phenyl}-1-(pyridazin-3-yl)pyrrolidine-3-carboxamide]"
5,111 nM,"O=C(N[C@H]1CCN(c2cccnn2)C1)c1ccc(C2CCN(C(=O)c3cscn3)CC2)s1 [Example 768, N-[(3S)-1-(pyridazin-3-yl)pyrrolidin-3-yl]-5-[1-(1,3-thiazol-4-ylcarbonyl)piperidin-4-yl]thiophene-2-carboxamide]"
6,1.41 nM,"CC(C)(C(=O)N1CCC(c2ccc(NC(=O)C3CN(c4ccnnc4)C3)cc2)CC1)c1ccccc1 [Example 546, N-{4-[1-(2-methyl-2-phenylpropanoyl)piperidin-4-yl]phenyl}-1-(pyridazin-4-yl)azetidine-3-carboxamide]"
7,26.3 nM,"CC1CC1C(=O)N1CCC(Oc2ccc(NC(=O)[C@H]3CCN(c4cccnn4)C3)cc2)CC1 (stereo partly drawn) [Example 802, (3S)-N-[4-({1-[(2-methylcyclopropyl)carbonyl]piperidin-4-yl}oxy)phenyl]-1-(pyridazin-3-yl)pyrrolidine-3-carboxamide]"
8,0.8 nM,"Cc1ccccc1C(=O)N1CCC(c2ccc(NC(=O)C3CN(c4cccnn4)C3)cc2)CC1 [Example 429, N-{4-[1-(2-methylbenzoyl)piperidin-4-yl]phenyl}-1-(pyridazin-3-yl)azetidine-3-carboxamide]"
9,715 nM,"O=C(Nc1ccc(O[C@@H]2CCN(C(=O)Cc3cccc(C(F)(F)F)c3)C2)cc1)C1CN(c2ccnnc2)C1 [Example 470, 1-(pyridazin-4-yl)-N-(4-{[(3R)-1-{[3-(trifluoromethyl)phenyl]acetyl}pyrrolidin-3-yl]oxy}phenyl)azetidine-3-carboxamide]"
10,0.13 nM,"O=C(Nc1ccc(C2CCN(C(=O)c3nccs3)CC2)cc1)C1CN(c2cccnc2)C1 [Example 108, 1-(pyridin-3-yl)-N-{4-[1-(1,3-thiazol-2-ylcarbonyl)piperidin-4-yl]phenyl}azetidine-3-carboxamide]"
11,> 10000 nM,"O=C(Nc1ccc(C2(F)CCN(C(=O)OCc3ccccc3)CC2)cc1)C1CN(c2ccc(Cl)nn2)C1 [Example 853, benzyl 4-[4-({[1-(6-chloropyridazin-3-yl)azetidin-3-yl]carbonyl}amino)phenyl]-4-fluoropiperidine-1-carboxylate]"
12,247 nM,"O=C(Nc1ccc(C2CCN(C(=O)c3ccc(F)cc3)CC2)cc1)C1CN(c2ccc(F)nn2)C1 [Example 823, N-{4-[1-(4-fluorobenzoyl)piperidin-4-yl]phenyl}-1-(6-fluoropyridazin-3-yl)azetidine-3-carboxamide]"
13,458 nM,"O=C(Nc1ccc(O[C@@H]2CCN(C(=O)Cc3ccc(C(F)(F)F)cc3)C2)cc1)C1CN(c2ccnnc2)C1 [Example 455, 1-(pyridazin-4-yl)-N-(4-{[(3R)-1-{[4-(trifluoromethyl)phenyl]acetyl}pyrrolidin-3-yl]oxy}phenyl)azetidine-3-carboxamide]"
14,56.4 nM,"CC[C@H](C)C(=O)N1CCC(Oc2ccc(NC(=O)[C@H]3CCN(c4cccnc4)C3)cc2)CC1 [Example 19, (3S)-N-[4-({1-[(2S)-2-methylbutanoyl]piperidin-4-yl}oxy)phenyl]-1-(pyridin-3-yl)pyrrolidine-3-carboxamide]"
15,18.1 nM,"O=C1CC[C@@H](C(=O)N2CCC(c3ccc(NC(=O)C4CN(c5cccnc5)C4)cc3)CC2)N1 [Example 114, N-{4-[1-(5-oxo-L-prolyl)piperidin-4-yl]phenyl}-1-(pyridin-3-yl)azetidine-3-carboxamide]"
